Data set [1] deals with HeLa cells. Nature of the data set: Cell migration detection via scratch experiment. It counts as cell-based, human. The settings on record: 100 nM, serum-free medium, up to 24 hours. As to the method:
The bottom of the six-well plate was uniformly marked with horizontal strips by marker, and then the logarithmic growth phase cells were seeded in the plate by 120×10^4 /mL concentration to make the cells evenly cover the six-well plate, and cells were incubated under 37° C. overnight. Fresh serum-free medium was changed, after the cells were starved for 10 hours, the bottom of six-well plate was scratched perpendicularly to horizontal strips, and washed three times with serum-free medium. After the suspended cells were rinsed, serum-free medium was added and photographed in 0, 2, 6, 12, and 24 hours. Image J was used to calculate the moving distance of the cells. By Scratching assay (HeLa cells were used as an example), the effect of Anagrelide on tumor cell migration was detected.

A short description of data set [2]: Blood routine test of tumor-bearing nude mice (WBC, RBC, Hb, PLT). It counts as in vivo, BALB/c naked mouse. The settings on record: day 21, vs vehicle control. As to the method:
Under aseptic conditions, tumor cells in the proliferation stage were taken. The cell concentration was adjusted after digestion, seeded at right armpit of nude mice, and the inoculated volume was 0.1 mL. Tumor diameter was measured with vernier caliper, after the tumor was grown to 200-300 mm^3, the tumor-bearing mice were selected, and randomly divided into 3 groups (n=4) according to the size of the tumors: negative control group, Anagrelide I (10 mg/kg), Anagrelide II (30 mg/kg). Each group was intragastric administrated, the day of administration was recorded as d1, the negative control group was given same amount of vehicle, and then the long and short diameters of tumor were measured twice a week, while the body weights of mice were weighed. At the 21th day of the administration, the animals were sacrificed and the tumor was dissected and weighed. Before the animals were sacrificed, eyeball was taken for blood sample, the number of white blood cell (WBC), red blood cell (RBC), concentration of hemoglobin (Hb) and number of platelet (PLT) were measured.

Regarding `O=C1CN2Cc3c(ccc(Cl)c3Cl)N=C2N1` [Anagrelide, 6,7-dichloro-1,5-dihydro-imidazo [2,1-b] quinazolin-2 (3H)-one], the “healing speed of scratch (cell migration)” value in data set [1] is recorded as “significantly inhibit the healing speed of scratch”. Also, the “blood routine test index (WBC, RBC, Hb, PLT)” value in data set [2] (10 mg/kg intragastric) and in data set [2] (30 mg/kg intragastric) was “didn't show any significant decrease” each time.

These data come from patent US10105362B2, “Anti-tumor use of anagrelide and derivatives thereof” (SHANGHAI INSTITUTE OF MATERIA MEDICA, CHINESE ACADEMY OF …, priority 2013, dated 2018).
